From ChEMBL document CHEMBL1687690, “Antiproliferative and differentiating activities of a novel series of histone deacetylase inhibitors” (ACS Med Chem Lett, 2010) come the findings set out here.

SMILES strings stand for the structures. Active and inactive are the calls of the source. No cut-off for these calls is given here. Some results are limits rather than exact numbers.

Assay [1] has as its target Histone deacetylase. Nature of the assay: Inhibition of HDAC activity in human NB4 cells assessed as acetylation of histone H3 after 24 hrs by Western blot analysis. Conditions: nb-4. Format: cell-based. For orientation: In western blotting, separated proteins are transferred to a membrane and probed.
The target in assay [2] is T1, Histone deacetylase (Homo sapiens) (UniProt Q13547+O15379+Q9UBN7+Q92769+Q9UQL6+Q8WUI4+Q9BY41+Q96DB2+P56524+Q9UKV0+Q969S8). Briefly: Inhibition of HDAC activity in human NB4 cells assessed as maximum acetylation of histone H3 at EC50 concentration after 24 hrs by Western blot analysis relative to control. As to conditions: NB-4. Format: cell-based.
Assay [3] concerns the target Histone deacetylase. Nature of the assay: Inhibition of HDAC activity in human NB4 cells assessed as acetylation of histone H4 after 24 hrs by Western blot analysis. Format: cell-based. Conditions: nb-4.
The target of assay [4] is T1, Histone deacetylase (Homo sapiens). Nature of the assay: Inhibition of HDAC activity in human NB4 cells assessed as maximum acetylation of histone H4 at EC50 concentration after 24 hrs by Western blot analysis relative to control. As to conditions: NB-4. Format: cell-based.
Assay [5] addresses Tubulin. Nature of the assay: Inhibition of HDAC activity in human NB4 cells assessed as acetylated tubulin after 24 hrs by Western blot analysis. Format: cell-based. Conditions: nb-4.
Assay [6] has as its target T1, Histone deacetylase (Homo sapiens). Briefly: Inhibition of HDAC activity in human NB4 cells assessed as maximum acetylated tubulin at EC50 concentration after 24 hrs by Western blot analysis relative to control. Format: cell-based. Conditions: NB-4.
In assay [7] the test system is HCT-116. Nature of the assay: Antiproliferative activity against human HCT116 cells after 24 hrs by alamar blue assay. Format: functional, cell-based. As to conditions: HCT-116, 24 h. For orientation: Alamar Blue is a resazurin reagent that responds to reducing activity.
The subject of assay [8] is NB-4. Nature of the assay: Antiproliferative activity against human NB4 cells after 24 hrs by alamar blue assay. Format: functional, cell-based. As to conditions: NB-4, 24 h.
Assay [9] concerns NB-4. Briefly: Potentiation of all-trans retinoic acid-induced human NB4 cells differentiation after 72 hrs by NBT-reductase activity assay relative HDAC inhibitor alone. Format: functional.
The test system of assay [10] is HCT-116. Briefly: Antitumor activity against human HCT116 cells xenografted in athymic nude mouse assessed as decrease in tumor volume at 12.5 mg/kg, iv administered once daily for 5 days per week by caliper measurement. Format: functional, organism-based. Set-up: dose 12.5 mg/kg. Background: In xenograft studies the graft and the host belong to different species.

For assay [11], the system named is HCT-116. Briefly: Antitumor activity against human HCT116 cells xenografted in athymic nude mouse assessed as decrease in tumor volume at 6.2 mg/kg, iv administered once daily for 5 days per week by caliper measurement. Set-up: dose 6.2 mg/kg. Format: functional, organism-based.
Assay [12] is described as follows: Ratio of IC50 for HDAC2 to IC50 for HDAC6.
The test system of assay [13] is HCT-116. Nature of the assay: Antitumor activity against human HCT116 cells xenografted in athymic nude mouse assessed as decrease in tumor volume at 25 mg/kg, iv administered once daily for 5 days per week by caliper measurement. Format: functional, organism-based. Set-up: dose 25 mg/kg.

As to `O=C(CCCCCN1C(=O)c2ccccc2Nc2ccccc21)NO`, the EC50 in assay [1] worked out at 1.3 µM; in [3], 1.53 µM; in assay [5], 1.17 µM. Moreover, the Ratio was determined as 188 in assay [2], 126 in assay [4], 402 in assay [6] and 6 in assay [9]. Further, the concentration for half-maximal inhibition (IC50) in assay [7] was above 10 µM; in assay [8], 0.73 µM.

For the compound `O=C(CCCCCN1C(=O)c2ccccc2Sc2ccc(Cl)cc21)NO`, the half-maximal effective concentration (EC50) in assay [1] is 0.34 µM; in [3] it was 0.36 µM; in [5], 0.15 µM. The Ratio in [2] was 200; in [4], 2330; in assay [6], 13200; in assay [9], 31. Further, the half-inhibitory concentration (IC50) in assay [7] was found to be 0.06 µM; in [8], 0.03 µM. In addition, the inhibition result in assay [10] is “Active”. Moreover, the inhibition result in [11] is “inactive”.

With `O=C(CCCCCN1C(=O)c2ccccc2Sc2ccccc21)NO`, the concentration for a half-maximal effect (EC50) in assay [1] stood at 0.46 µM; in assay [3] it was 0.43 µM; in [5], 0.37 µM. For the same compound, the Ratio stood at 190 in assay [2], 89 in assay [4], 2000 in [6] and 5 in assay [9]. The half-inhibitory concentration (IC50) was 0.39 µM in assay [7] and 0.19 µM in assay [8].

Regarding `O=C(CCCCCN1C(=O)c2ccccc2Oc2ccc(Cl)cc21)NO`, the concentration for a half-maximal effect (EC50) in [1] worked out at 0.38 µM; in assay [3], 0.53 µM; in [5], 0.44 µM. For the same compound, the Ratio in assay [2] is 3; in assay [4], 9; in assay [6], 932; in assay [9] it was 1. Besides, the concentration for half-maximal inhibition (IC50) in assay [7] came to 0.2 µM; in [8], 0.16 µM.

Regarding `COc1ccc2c(c1)N(CCCCCC(=O)NO)C(=O)c1ccccc1N2`, the EC50 in assay [1] turned out to be 0.39 µM; in [3], 0.28 µM; in assay [5], 0.25 µM. Further, the Ratio turned out to be 7 in assay [2], 244 in assay [4], 199 in assay [6] and 1 in [9]. Besides, the IC50 came to 0.36 µM in assay [7] and 0.14 µM in assay [8].

With `O=C(CCCCCN1C(=O)c2ccccc2S(=O)(=O)c2ccccc21)NO`, the EC50 in assay [1] was determined as 0.5 µM; in [3], 0.72 µM; in assay [5], 0.05 µM. Also, the Ratio in assay [2] was found to be 342; in [4], 336; in [6] it was 10700; in assay [9], 14. For the same compound, the Ratio IC50 in assay [12] came to 48. The figures for the IC50 in [7] and in assay [8] were 0.15 µM and 0.12 µM, respectively.

`COc1ccc2c(c1)N(CCCCCC(=O)NO)C(=O)c1ccccc1O2`: the half-maximal effective concentration (EC50) in assay [1] was determined as 0.2 µM; in assay [3], 0.32 µM; in assay [5], 0.09 µM. Moreover, the Ratio in [2] was determined as 61; in assay [4] it was 206; in assay [6], 1780; in assay [9], 7. In addition, the IC50 came to 0.31 µM in [7] and 0.14 µM in [8].

Consider `COc1ccc2c(c1)N(CCCCCC(=O)NO)C(=O)c1ccccc1S2`, for which the concentration giving a half-maximal response (EC50) is 0.19 µM in assay [1], 0.15 µM in [3] and 0.13 µM in assay [5]. Moreover, the Ratio in assay [2] came out at 12; in assay [4] it was 28; in assay [6], 47; in assay [9] it was 16. In addition, the IC50 stood at 0.09 µM in assay [7] and 0.03 µM in assay [8]. Also, the inhibition result in [13] is “Active”.

Regarding `O=C(CCCCCN1C(=O)c2ccccc2S(=O)(=O)c2ccc(Cl)cc21)NO`, the 50% effective concentration (EC50) in assay [1] worked out at 0.03 µM; in assay [3], 0.06 µM; in assay [5] it was 0.04 µM. Moreover, the Ratio was 2110 in [2], 795 in [4], 8850 in assay [6] and 56 in assay [9]. The IC50 in assay [7] is 0.03 µM; in assay [8] it was 0.02 µM.

Take `CN1c2ccccc2C(=O)N(CCCCCC(=O)NO)c2ccccc21`: the values for the concentration giving a half-maximal response (EC50) in assay [1], in assay [3] and in assay [5] were 2.65 µM, 2.95 µM and 2.74 µM, respectively. Moreover, the Ratio in assay [2] stood at 10; in assay [4] it was 14; in assay [6], 40; in assay [9] it was 13. In addition, the IC50 worked out at 8.1 µM in assay [7] and 2.46 µM in assay [8].

As for `O=C(CCCCCN1C(=O)c2ccccc2Nc2ccc(Cl)cc21)NO`, the EC50 in [1] was 0.84 µM; in assay [3], 0.86 µM; in assay [5] it was 0.32 µM. Also, the Ratio came out at 31 in assay [2], 78 in assay [4], 413 in assay [6] and 1 in assay [9]. Moreover, the values for the concentration for half-maximal inhibition (IC50) in assay [7] and in assay [8] were 0.45 µM and 0.29 µM, respectively.

On to `O=C(CCCCCN1C(=O)c2ccccc2Oc2ccccc21)NO`, for which the EC50 in assay [1] came to 6.24 µM; in assay [3], 3.27 µM; in assay [5], 0.29 µM. Besides, the Ratio turned out to be 15 in assay [2], 54 in assay [4], 2630 in assay [6] and 2 in assay [9]. Moreover, the Ratio IC50 in assay [12] was 61. Besides, the IC50 in assay [7] was found to be 0.64 µM; in assay [8], 0.61 µM.

Turning to `COc1ccc2c(c1)N(CCCCCC(=O)NO)C(=O)c1ccccc1S2(=O)=O`, the EC50 in assay [1] is 0.03 µM; in assay [3], 0.09 µM; in [5] it was 0.05 µM. For the same compound, the Ratio in assay [2] turned out to be 4740; in assay [4], 1460; in assay [6], 30600; in assay [9] it was 79. The figures for the half-maximal inhibitory concentration (IC50) in [7] and in assay [8] were 0.04 µM and 0.02 µM, respectively.

As a reminder, the EC50 is the concentration needed to bring the measured effect to its halfway point. In general, IC50 refers to the concentration at which inhibition is half-maximal. Low readings indicate greater potency in that assay, high ones weaker potency in that assay.
